{"source": "patent US20080318869A1", "about": "“Method to Promote Wound Healing” (IMMUNEREGEN BIOSCIENCES, INC., priority 2004, published 2008)", "test_system": "tail wounds of irradiated mice", "test": "Healing of tail bite wounds in irradiated mice", "type": "in vivo", "settings": "male mice with tail bite wounds; 7, 8, or 9 Gy 60 Cobalt gamma radiation single acute dose; direct muscle injection 0.5 ml bolus at 2 micromolar; 7 weeks post-radiation exposure; saline controls had unhealed tail wounds", "procedure": "The male mice fought while confined with four mice/bin. They sustained extensive tail wounds from biting. We then exposed the mice to either 7, 8, or 9 Gy 60 Cobalt gamma radiation in a single acute dose. [Sar^9,Met(02)^11]-substance P was administered by direct muscle injection in a 0.5 ml bolus at 2 micromolar concentration. Control animals received injections of normal saline."}
{"substance": "[Sar^9,Met(O2)^11]-substance P", "values": [{"measurement": "unhealed tail wounds", "value": "did not have any unhealed tail wounds"}]}
